Data reported in patent publication US20090136468A1, “PERI-OPERATIVE COMPOSITION COMPRISING LACTOBACILLUS RHAMNOSUS” (N.V. NUTRICIA, priority 2004, published 2009).

How the values were obtained:
[1] = system: Lb. rhamnosus GG; experiment: Broth micro dilution test, MIC; type: cell-based, Lactobacillus rhamnosus; settings: Lacticaseibacillus rhamnosus, unit from Table 6, read-out: MIC against Lb. rhamnosus GG
Protocol: (§1) The inocula of 131 strains of Lactobacillus rhamnosus species are prepared by suspending several freshly cultivated single colonies in a tube with 5 ml of saline up to an optical density of McFarland standard No. 0.5. The corresponding colonies are picked up from MRS (de Man, Rogosa, Sharpe) agar plates on which the strains grew for 48 h at 37° C. and at 5% CO2 atmosphere. Subsequently, this suspension is diluted 1:10 by transferring 4 ml of the McFarland No. 0.5 suspension into a suitable inoculum container with 36 ml of saline and subsequent careful mixing. The MIC microtiter test plates (95 wels with different concentrations of the test antibiotics and one wel for the growth control without any antibiotic) were prepared before. Nutrient medium: LSM (lactobacilli susceptibility test medium) broth consisting of 90% Iso-sensitest broth plus 10% MRS broth (pH 6.7). The inoculations of the pre-made MIC test plates are performed by a multipoint inoculator (final inoculum of these LAB in the microtiter plate: about 10^5 bacteria ml^−1). The plates are subsequently incubated in ambient air or in a 5% CO2 atmosphere at 37° C. for 24 (−48) h. Then the MICs are read as the lowest concentration in the increasing concentration row of the corresponding antibiotic in which no growth of the test organism was observed. The control attempt (without antibiotic) of the corresponding strain tested has to show sufficient growth.
(§2) In a large study comprising 131 different Lb. rhamosus strains the sensitivity for antibiotics was tested. In table 6 the number of strains falling within a certain dilution factor are shown. Clearly there are large differences in antibiotic sensitivity within the Lb. rhamnosus group. The more sensitive to these antibiotics, the better and together with the other parameters, such as the inhibition of adhesion of pathogens to intestinal epithelial cells is used to select the most appropriate Lb. rhamnosus. […]

[2] = system: our preferred Lb. rhamnosus (LMG P-22799); experiment: Broth micro dilution test, MIC; type: cell-based, Lactobacillus rhamnosus
Protocol: as §1, §2

[3] = system: 131 strains of Lactobacillus rhamnosus; experiment: Broth micro dilution test, MIC distribution; type: cell-based; settings: 131 L. rhamnosus strains, LSM broth, 37° C.
Protocol: as §1

[4] = system: L. rhamnosus GG (ATCC 53103); experiment: MIC by serial dilution of antibiotics in MRS broth; type: cell-based, Lactobacillus rhamnosus; settings: 24 hours at 37° C.
Protocol: (§3) The Minimal inhibitory concentration (MIC) was determined by serial dilution of the tested antibiotics in MRS broth (Oxoid) and inoculate the broth with the probiotic strain to be tested.
(§4) Strains of Lactobacilli were cultured for 24 hours in MRS-broth at 37° C. and under aerobic conditions. A dilution series of the 24 hours-culture in MRS-broth was prepared (dilution factor 10, from 10^−1 to 1^−10). The dilution series were cultured overnight (i.e. 16 h) at 37° C. under aerobic conditions. The highest dilution in which still growth was observed was selected to inoculate a 96-wells plate. The culture was centrifuge for 10 min at 3800 rpm and 4° C. and resuspended in the same volume of PBS (4° C.). The Lactobacilli were counted under a microscope and the solution was diluted in cold PBS to obtain a concentration of 1*10^8 cells/ml.
(§5) Wells of a 96-wells plate were filled with MRS broth and with antibiotics in varying dilution to a total volume of 95 μl. As a control, no antibiotics were added. The following final dilutions of antibiotics were tested:
(§6) bacitracin, colistin, nystatin, polymixin B, vancomycin: 1000, 500, 250, 125, 62.5 ug/ml erythromycin, kanamycin, neomycm: 100, 50, 25, 12.5, 6.25 ug/ml ampicillin, chloramphenicol, lincomycin, penicillin, streptomycin, tetracyclin: 10, 5, 2.5, 1.25, 0.625 ug/ml
(§7) The plates were incubated for 24 hours at 37° C. in a SpectaMAX plate reader (shaking every 10 minutes for 20 seconds) and the optical density was determined at 600 nm.

[5] = system: L. rhamnosus LMG P-22799; experiment: MIC by serial dilution of antibiotics in MRS broth; type: cell-based, Lactobacillus rhamnosus; settings: 24 hours at 37° C.
Protocol: as §3, §4, §5, §6, §7

Row | Compound | Number of strains with a MIC of 0.5 μg/ml [3] | Number of strains with a MIC of 1.0 μg/ml [3] | Number of strains with a MIC of 2.0 μg/ml [3] | Number of strains with a MIC of 4.0 μg/ml [3] | Antibiotic sensitivity (expressed as MIC) of L. rhamnosus GG (ATTC 53103) [4] | Antibiotic sensitivity (expressed as MIC) of L. rhamnosus LMG P-22799 [5] | also measured
1 | CC1(C)S[C@@H]2[C@H](NC(=O)[C@H](N)c3ccccc3)C(=O)N2[C@H]1C(=O)O [Ampicillin, ampicillin] | 52 | 62 | 12 | 2 | >10 µg/mL | 2.5 µg/mL | MIC [1]: ≥ 1 µg/mL; AMP sensitivity ratio LGG/LMG P-22799 [2]: 2-4; MIC ([2]; Lacticaseibacillus rhamnosus, unit from Table 6, read-out: MIC against our preferred Lb. rhamnosus): ≤ 0.5 µg/mL; Number of strains with a MIC of 0.25 μg/ml [3]: 3
2 | O=C(N[C@H](CO)[C@H](O)c1ccc([N+](=O)[O-])cc1)C(Cl)Cl [CMP] | 1 | 10 | 88 | 31 |  |  | Number of strains with a MIC of 8.0 μg/ml [3]: 1
3 | O=C(N[C@H](CO)[C@H](O)c1ccc([N+](=O)[O-])cc1)C(Cl)Cl [Chloramphenicol, chloramphenicol] |  |  |  |  | >10 µg/mL | 5 µg/mL | 
4 | CN(C)[C@@H]1C(=O)C(C(N)=O)=C(O)[C@@]2(O)C(=O)C3=C(O)c4c(O)cccc4[C@@](C)(O)[C@H]3C[C@@H]12 [Tetracyclin, tetracyclin] |  |  |  |  | 10 µg/mL | 2.5 µg/mL | 
5 | penicillin | 28 | 11 | 7 |  |  |  | Number of strains with a MIC of 0.125 μg/ml [3]: 9; Number of strains with a MIC of 0.25 μg/ml [3]: 76

More lines, main results first:

Row | Number of strains with a MIC of 0.5 μg/ml [3] | Number of strains with a MIC of 1.0 μg/ml [3] | Number of strains with a MIC of 2.0 μg/ml [3] | Number of strains with a MIC of 4.0 μg/ml [3] | Antibiotic sensitivity (expressed as MIC) of L. rhamnosus GG (ATTC 53103) [4] | Antibiotic sensitivity (expressed as MIC) of L. rhamnosus LMG P-22799 [5] | Compound | also measured
6 |  |  |  |  | >100 µg/mL | 50 µg/mL | CC[C@H]1OC(=O)[C@H](C)[C@@H](O[C@H]2C[C@@](C)(OC)[C@@H](O)[C@H](C)O2)[C@H](C)[C@@H](O[C@@H]2O[C@H](C)C[C@H](N(C)C)[C@H]2O)[C@](C)(O)C[C@@H](C)C(=O)[C@H](C)[C@@H](O)[C@]1(C)O [Erythromycin, erythromycin] | 
7 |  |  |  |  | 10 µg/mL | 5 µg/mL | CCC[C@@H]1C[C@@H](C(=O)N[C@@H]([C@H]2O[C@H](SC)[C@H](O)[C@@H](O)[C@H]2O)[C@@H](C)O)N(C)C1 [Lincomycin, lincomycin] | 
8 |  |  | 37 | 52 |  |  | [H]/N=C(/N)N[C@H]1[C@H](O)[C@@H](O)[C@H](O[C@@H]2O[C@@H](C)[C@](O)(C=O)[C@H]2O[C@@H]2O[C@@H](CO)[C@H](O)[C@@H](O)[C@@H]2NC)[C@@H](N/C(N)=N\[H])[C@@H]1O [STR] | Number of strains with a MIC of 8.0 μg/ml [3]: 21
9 |  |  |  |  | >10 µg/mL | 5 µg/mL | [H]/N=C(/N)N[C@H]1[C@H](O)[C@@H](O)[C@H](O[C@@H]2O[C@@H](C)[C@](O)(C=O)[C@H]2O[C@@H]2O[C@@H](CO)[C@H](O)[C@@H](O)[C@@H]2NC)[C@@H](N/C(N)=N\[H])[C@@H]1O [Streptomycin, streptomycin] | 
